{"source": "paper PMC7470033", "about": "“In vitro inhibitory effect of lysionotin on the activity of cytochrome P450 enzymes” (Pharmaceutical Biology, 2020)", "format_in_all_cases": "in vitro ADME", "key": {"CYP3A4": {"target": "T1, CYP3A4 (Homo sapiens, UniProt P08684)", "T1 construct": "Pooled HLMs were purchased from BD Biosciences Discovery Labware; tissue BD Biosciences Discovery Labware; host or cells: pooled human liver microsomes", "T1 sequence (P08684 whole entry, canonical isoform)": "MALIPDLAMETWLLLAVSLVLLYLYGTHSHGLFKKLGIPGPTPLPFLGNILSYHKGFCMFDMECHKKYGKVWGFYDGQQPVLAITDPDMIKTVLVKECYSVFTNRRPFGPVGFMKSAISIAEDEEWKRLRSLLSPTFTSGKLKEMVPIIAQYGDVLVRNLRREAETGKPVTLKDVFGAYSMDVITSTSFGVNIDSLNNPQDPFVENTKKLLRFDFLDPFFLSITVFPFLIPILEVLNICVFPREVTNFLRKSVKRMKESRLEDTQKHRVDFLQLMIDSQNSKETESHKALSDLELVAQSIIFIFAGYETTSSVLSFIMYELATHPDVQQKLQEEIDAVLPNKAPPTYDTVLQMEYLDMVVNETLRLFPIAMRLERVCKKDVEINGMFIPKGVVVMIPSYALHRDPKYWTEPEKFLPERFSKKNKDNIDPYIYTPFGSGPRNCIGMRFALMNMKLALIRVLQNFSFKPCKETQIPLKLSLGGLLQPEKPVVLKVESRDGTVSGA", "assay": "CYP3A4 inhibition in pooled human liver microsomes (testosterone 6β-hydroxylation)", "experimental": "(§1) In this study, lysionotin was incubated with eight CYP isoforms (i.e., 1A2, 3A4, 2A6, 2E1, 2D6, 2C9, 2C19 and 2C8) in pooled human liver microsomes to investigate the interaction between lysionotin and CYPs, which can provide direct evidence for the effect of lysionotin on the activity of CYPs. In vitro, phenacetin (CYP1A2), testosterone (CYP3A4), coumarin (CYP2A6), chlorzoxazone (CYP2E1), dextromethorphan (CYP2D6), diclofenac (CYP2C9), S-mephenytoin (CYP2C19) and paclitaxel (CYP2C8) were used as probe substrates to determine the effects of lysionotin on eight CYP enzymes. In addition, enzyme kinetic studies were conducted to determine the inhibition model of lysionotin on CYP enzymes.\n(§2) All incubations were performed in triplicate, and the mean values were utilised. The typical incubation systems contained 100 mM potassium phosphate buffer (pH 7.4), NADPH generating system (1 mM NADP^+, 10 mM glucose-6-phosphate, 1 U/mL of glucose-6-phosphate dehydrogenase, and 4 mM MgCl2), the appropriate concentration of HLMs, a corresponding probe substrate and lysionotin (or positive inhibitor for different probe reactions) in a final volume of 200 μL.\nThe concentration of lysionotin was 100 μM, and the positive inhibitor concentrations were as follows: 10 μM furafylline for CYP1A2, 1 μM ketoconazole for CYP3A4, 10 μM tranylcypromine for CYP2A6, 50 μM clomethiazole for CYP2E1, 10 μM quinidine for CYP2D6, 10 μM sulfaphenazole for CYP2C9, 50 μM tranylcypromine for CYP2C19, 5 μM montelukast for CYP2C8. […] The instrument used in this study was Agilent 1260 series instrument with DAD and FLD detector, and the quantitative assay for the corresponding metabolites was performed as previously reported and the detection conditions are summarised in Table 2 (He et al. [2015]; Lang et al. [2017]; Zhang et al. [2017]). […]\n(§3) The enzyme kinetic parameters for the probe reaction were estimated from the best fit line, using least-squares linear regression of the inverse substrate concentration versus the inverse velocity (Lineweaver-Burk plots), and the mean values were used to calculate Vmax and Km. Inhibition data from the experiments that were conducted using multiple compound concentrations were represented by Dixon plots, and inhibition constant (Ki) values were calculated using non-linear regression according to the following equation: v=(VmaxS)/(Km(1+I/Ki+S)for competitive inhibition v=(VmaxS)/[(Km+S((1+I/Ki)] for non-competitive inhibition where I is the concentration of the compound, Ki is the inhibition constant, S is the concentration of the substrate, and Km is the substrate concentration at half the maximum velocity (Vmax) of the reaction. The mechanism of the inhibition was inspected using the Lineweaver-Burk plots and the enzyme inhibition models. […]"}, "CYP2C19": {"target": "T2, CYP2C19 (Homo sapiens, UniProt P33261)", "T2 construct": "Pooled HLMs were purchased from BD Biosciences Discovery Labware; tissue BD Biosciences Discovery Labware; host or cells: pooled human liver microsomes", "T2 sequence (P33261 whole entry)": "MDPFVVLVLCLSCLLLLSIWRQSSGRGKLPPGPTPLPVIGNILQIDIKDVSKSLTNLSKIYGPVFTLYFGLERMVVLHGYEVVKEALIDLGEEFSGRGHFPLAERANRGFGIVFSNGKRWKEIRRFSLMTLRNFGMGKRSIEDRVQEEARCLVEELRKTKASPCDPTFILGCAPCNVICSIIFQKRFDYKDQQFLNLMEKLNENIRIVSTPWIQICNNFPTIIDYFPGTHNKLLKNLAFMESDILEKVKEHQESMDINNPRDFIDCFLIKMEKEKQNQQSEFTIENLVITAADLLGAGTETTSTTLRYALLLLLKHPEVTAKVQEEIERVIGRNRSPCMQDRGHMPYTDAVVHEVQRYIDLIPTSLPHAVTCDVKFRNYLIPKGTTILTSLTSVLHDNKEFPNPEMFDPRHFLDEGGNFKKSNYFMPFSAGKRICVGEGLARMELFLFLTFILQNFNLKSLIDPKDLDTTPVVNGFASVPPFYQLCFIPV", "assay": "CYP2C19 inhibition in pooled human liver microsomes (S-mephenytoin 4-hydroxylation)", "conditions": "for inhibition model of CYP2C19: Lineweaver-Burk plots", "experimental": "as §1, §2\n(§4) The concentration of lysionotin was 100 μM, and the positive inhibitor concentrations were as follows: 10 μM furafylline for CYP1A2, 1 μM ketoconazole for CYP3A4, 10 μM tranylcypromine for CYP2A6, 50 μM clomethiazole for CYP2E1, 10 μM quinidine for CYP2D6, 10 μM sulfaphenazole for CYP2C9, 50 μM tranylcypromine for CYP2C19, 5 μM montelukast for CYP2C8. Probe substrates, positive inhibitors (except for dextromethorphan and quinidine, which were dissolved in water), and lysionotin were dissolved in methanol, with a final concentration of 1% (v/v), and 1% neat methanol was added to the incubations without inhibitor. There was a 3 min preincubation period (at 37 °C) before the reaction was initiated by adding an NADPH-generating system. The reaction was terminated by adding a 100 μL acetonitrile (10% trichloroacetic acid for CYP2A6) internal standard mix, and the solution was placed on ice. The mixture was centrifuged at 12,000 rpm for 10 min, and an aliquot (50 μL) of supernatant was transferred for HPLC analysis. The instrument used in this study was Agilent 1260 series instrument with DAD and FLD detector, and the quantitative assay for the corresponding metabolites was performed as previously reported and the detection conditions are summarised in Table 2 (He et al. [2015]; Lang et al. [2017]; Zhang et al. [2017]). […]\nas §3"}, "CYP2C8": {"target": "T3, CYP2C8 (Homo sapiens, UniProt P10632)", "T3 construct": "Pooled HLMs were purchased from BD Biosciences Discovery Labware; tissue BD Biosciences Discovery Labware; host or cells: pooled human liver microsomes", "T3 sequence (P10632 1-490)": "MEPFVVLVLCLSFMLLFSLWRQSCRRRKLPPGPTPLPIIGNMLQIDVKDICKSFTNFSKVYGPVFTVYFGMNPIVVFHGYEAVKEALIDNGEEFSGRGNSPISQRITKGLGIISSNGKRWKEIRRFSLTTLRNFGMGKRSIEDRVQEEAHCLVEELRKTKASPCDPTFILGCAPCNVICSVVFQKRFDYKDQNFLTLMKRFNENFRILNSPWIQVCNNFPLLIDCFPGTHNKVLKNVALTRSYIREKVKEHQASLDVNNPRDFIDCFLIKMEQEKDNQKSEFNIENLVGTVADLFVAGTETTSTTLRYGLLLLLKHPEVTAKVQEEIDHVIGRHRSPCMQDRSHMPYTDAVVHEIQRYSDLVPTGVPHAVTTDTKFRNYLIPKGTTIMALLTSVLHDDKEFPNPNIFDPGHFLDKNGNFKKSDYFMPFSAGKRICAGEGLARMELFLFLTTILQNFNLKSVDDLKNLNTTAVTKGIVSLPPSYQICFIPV", "assay": "CYP2C8 inhibition in pooled human liver microsomes (paclitaxel 6α-hydroxylation)", "conditions": "for inhibition model of CYP2C8: Lineweaver-Burk plots", "experimental": "as §1, §2, §4, §3"}}, "note": "pIC50, pKi: −log10 of the molar value.", "data": [{"smiles": "COc1ccc(-c2cc(=O)c3c(O)c(OC)c(O)c(OC)c3o2)cc1", "note": "[lysionotin, Lysionotin]", "values": [{"measurement": "activity of CYP3A4 decreased by", "setting": "CYP3A4; 100 μM lysionotin, pooled HLMs", "value": 86.33, "unit": "%"}, {"measurement": "inhibition model of CYP3A4", "setting": "CYP3A4; Lineweaver-Burk plots", "value": "non-competitive"}, {"measurement": "pKi", "setting": "CYP3A4; non-competitive model, testosterone 20–100 μM, pooled HLM", "value": 5.17}, {"measurement": "pIC50", "setting": "CYP3A4; pooled HLMs, testosterone 6β-hydroxylation", "value": 4.86}, {"measurement": "activity of CYP2C19 decreased by", "setting": "CYP2C19; 100 μM lysionotin, pooled HLMs", "value": 74.86, "unit": "%"}, {"measurement": "inhibition model of CYP2C19", "setting": "CYP2C19", "value": "competitively"}, {"measurement": "inhibition model of CYP2C19", "setting": "CYP2C19; listed as Lysionotin", "value": "competitive"}, {"measurement": "pKi", "setting": "CYP2C19; competitive model, mephenytoin 50–200 μM, lysionotin 0–50 μM, pooled HLM", "value": 4.91}, {"measurement": "pIC50", "setting": "CYP2C19; pooled HLMs, S-mephenytoin 4-hydroxylation", "value": 4.60}, {"measurement": "activity of CYP2C8 decreased by", "setting": "CYP2C8; 100 μM lysionotin, pooled HLMs", "value": 67.22, "unit": "%"}, {"measurement": "inhibition model of CYP2C8", "setting": "CYP2C8", "value": "competitively"}, {"measurement": "inhibition model of CYP2C8", "setting": "CYP2C8; listed as Lysionotin", "value": "competitive"}, {"measurement": "pKi", "setting": "CYP2C8; competitive model, paclitaxel 5–20 μM, lysionotin 0–50 μM, pooled HLM", "value": 4.84}]}]}
